According to patent US20240122847A1, “ORAL POLYPEPTIDE FORMULATIONS” (Bhami's Research Laboratory, Pvt. Ltd., priority 2022, published 2024):
Like-named read-outs stand apart in the source and are kept apart here.

Columns and labels:
[1] = test system: serum calcium, serum phosphorous and alkaline phosphatase; assay: Pharmacodynamics of PTH in rats; assay type: in vivo, SD rats; design: sCa (serum calcium): unit not given here; settings: for sALP (serum alkaline phosphatase) / sCa (serum calcium) / sP (serum phosphorous): subcutaneous 40 μg
Text: The serum calcium and serum phosphorous were estimated using Siemen's […] 744 Electrolyte Analyzer and for serum ALP Siemen's Dimension Expand Plus was used.
The pharmacodynamics data in subcutaneous and buccal/Sublingual groups of rats are shown in Tables 27 and 28 and in FIGS. 67 and 68.

[2] = minipig, in vivo
Experimental: (§1) Pharmacokinetic analysis was conducted in Female Minipigs weighing 12±1 kg for 2 days. Pigs in the oral treatment group was either fasted overnight or fed prior to the test sample administration. All the test animals in the treatment groups were administered with respective test formulation to the pre-designated animals. The animal was restrained and its head was held vertically, the jaws were pulled away, the tongue was gently lifted with a forceps followed by placement of a polypeptide formulation as described herein buccally/sublingually. After placing a polypeptide formulation as described herein, the snout was held together for about 1-2 mins to prevent the chewing of the polypeptide formulation. The time of dosage of each animal was noted. Blood samples were collected at aforementioned time points 0 min, 5 min, 30 min, 1 hour, 2 hours, 4 hours, 8 hours, and 24 hours into an EDTA-blood collection tubes for the separation of plasma to determine PTH (1-34) levels by ELISA. Plasma samples collected at different time points were analyzed by ELISA kit according to Creative Diagnostics protocol. This kit is based on sandwich enzyme-linked immuno-sorbent assay technology. An antibody, anti-PTH (1-34) was pre-coated onto a 96-well plate. Standards, test samples, and biotin-conjugated reagent were added to the wells and incubated. The HRP-conjugated reagent was then added, and the whole plate was incubated. Unbound conjugates were removed using wash buffer at each stage. TMB substrate was used to quantify the HRP enzymatic reaction. After TMB substrate was added, only wells that contain sufficient PTH (1-34) will produce a blue colored product, which then changes to yellow after adding the acidic stop solution. The intensity of the yellow color is proportional to the PTH (1-34) amount bound on the plate. The Optical Density (OD) was measured spectrophotometrically at 450 nm in a microplate reader, from which the concentration of PTH (1-34) can be calculated.
(§2) PTH (1-34) was analyzed in plasma using a specific enzyme linked immunosorbent assay (ELISA). Pharmacokinetic endpoints were determined using noncompartmental methods using PK Solutions software. AUC was approximated using the trapezoidal rule on the observed concentrations. C max for each PTH (1-34) dose was derived as the maximum of all valid concentrations, and t max was then determined as the corresponding time point to C max. The terminal elimination rate constant (λz) was estimated by log-linear regression on the terminal part of the concentration-time curve, and t ½ was then calculated as t ½=ln 2/λz.

[3] = rat, in vivo, sc, 0.04 mg
Experimental: (§3) Pharmacokinetic analysis was conducted in female rats weighing 220-250 grams for 2 days. Rats in the oral treatment group was either fasted overnight or fed prior to the test sample administration. All the test animals in the treatment groups were administered with respective test formulation to the pre-designated animals. The animal was restrained and its head was held vertically, the jaws were pulled away, the tongue was gently lifted with a forceps followed by placement of a polypeptide formulation as described herein buccally/sublingually. After placing a polypeptide formulation as described herein, the snout was held together for about 1-2 mins to prevent the chewing of the polypeptide formulation. The time of dosage of each animal was noted. Blood samples were collected at aforementioned time points 0 min, 15 min, 30 min, 1 hour, 2 hours, 4 hours, 8 hours, 12 hours, 24 hours, and 48 hours into an EDTA-blood collection tubes for the separation of plasma to determine PTH (1-34) levels by ELISA. Plasma samples collected at different time points were analyzed by ELISA kit according to Creative Diagnostics protocol. This kit is based on sandwich enzyme-linked immuno-sorbent assay technology. An antibody, anti-PTH (1-34) was pre-coated onto a 96-well plate. Standards, test samples, and biotin-conjugated reagent were added to the wells and incubated. The HRP-conjugated reagent was then added, and the whole plate was incubated. Unbound conjugates were removed using wash buffer at each stage. TMB substrate was used to quantify the HRP enzymatic reaction. After TMB substrate was added, only wells that contain sufficient PTH (1-34) will produce a blue colored product, which then changes to yellow after adding the acidic stop solution. The intensity of the yellow color is proportional to the PTH (1-34) amount bound on the plate. The Optical Density (OD) was measured spectrophotometrically at 450 nm in a microplate reader, from which the concentration of PTH (1-34) can be calculated.
as §2

[4] = Pharmacokinetics of PTH (1-34) in SD rats, sugar truffle buccal/sublingual vs SC, plasma PTH (1-34) ELISA
Experimental: as §3, §2

[5] = Pharmacokinetics of PTH (1-34) in minipigs, sugar truffle buccal/sublingual vs SC, plasma PTH (1-34) ELISA; settings: for AUC(0-inf) / AUC 0-t / AUC(t-inf) extrapolated / MRT inf / AUMC 0-inf_obs / AUMC 0-inf_pred / AUMC 0-t / AUMC t-inf_obs / AUMC t-inf_pred / Clast_obs / Clast_pred / Lambda_z / Tlag / Tlast: minipigs; for Mean PTH (1-34) levels: pigs, GII - Buccal/sublingual 0.49 mg
Experimental: as §1, §2

[6] = female, SD, rat, plasma, 0.49 mg
[7] = female, SD, rat, plasma, sc, 0.04 mg
[8] = female, Yorkshire, minipig, plasma, 0.49 mg
[9] = female, Yorkshire, minipig, plasma, sc, 0.04 mg

## CC[C@H](C)[C@H](NC(=O)[C@H](CCC(=O)O)NC(=O)[C@H](CO)NC(=O)[C@@H](NC(=O)[C@@H](N)CO)C(C)C)C(=O)N[C@@H](CCC(N)=O)C(=O)N[C@@H](CC(C)C)C(=O)N[C@@H](CCSC)C(=O)N[C@@H](Cc1cnc[nH]1)C(=O)N[C@@H](CC(N)=O)C(=O)N[C@@H](CC(C)C)C(=O)NCC(=O)N[C@@H](CCCCN)C(=O)N[C@@H](Cc1cnc[nH]1)C(=O)N[C@@H](CC(C)C)C(=O)N[C@@H](CC(N)=O)C(=O)N[C@@H](CO)C(=O)N[C@@H](CCSC)C(=O)N[C@@H](CCC(=O)O)C(=O)N[C@@H](CCCN=C(N)N)C(=O)N[C@H](C(=O)N[C@@H](CCC(=O)O)C(=O)N[C@@H](Cc1c[nH]c2ccccc12)C(=O)N[C@@H](CC(C)C)C(=O)N[C@@H](CCCN=C(N)N)C(=O)N[C@@H](CCCCN)C(=O)N[C@@H](CCCCN)C(=O)N[C@@H](CC(C)C)C(=O)N[C@@H](CCC(N)=O)C(=O)N[C@@H](CC(=O)O)C(=O)N[C@H](C(=O)N[C@@H](Cc1cnc[nH]1)C(=O)N[C@@H](CC(N)=O)C(=O)N[C@@H](Cc1ccccc1)C(=O)O)C(C)C)C(C)C [PTH (1-34)]
[1]; PTH given by buccal/sublingual route
  PD effect on serum calcium, serum phosphorous and serum alkaline phosphatase: clearly indicates the effect on serum calcium, serum phosphorous and serum alkaline phosphatase
[1]; time 0 hours
  sALP (serum alkaline phosphatase): 98.5 ± 33.23
  sCa (serum calcium): 9.05 ± 0.07
  sP (serum phosphorous): 9.3 ± 0.28
[1]; time 0.08 hours
  sALP (serum alkaline phosphatase): 131 ± 1.41
  sCa (serum calcium): 9.65 ± 0.77
  sP (serum phosphorous): 8.85 ± 0.07
[1]; time 0.5 hours
  sALP (serum alkaline phosphatase): 136 ± 7.07
  sCa (serum calcium): 10.2 ± 0.28
  sP (serum phosphorous): 8.45 ± 0.21
[1]; time 1 hours
  sALP (serum alkaline phosphatase): 142 ± 5.65
  sCa (serum calcium): 10.35 ± 0.35
  sP (serum phosphorous): 4.85 ± 0.91
[1]; time 2 hours
  sALP (serum alkaline phosphatase): 184.5 ± 16.26
  sCa (serum calcium): 10.45 ± 0.35
  sP (serum phosphorous): 5.75 ± 1.06
[1]; time 4 hours
  sALP (serum alkaline phosphatase): 151 ± 21.21
  sCa (serum calcium): 9.45 ± 0.21
  sP (serum phosphorous): 8.65 ± 0.21
[1]; time 8 hours
  sALP (serum alkaline phosphatase): 131.5 ± 14.84
  sCa (serum calcium): 9.25 ± 0.35
  sP (serum phosphorous): 8.95 ± 0.07
[1]; time 24 hours
  sALP (serum alkaline phosphatase): 111 ± 21.21
  sCa (serum calcium): 9.05 ± 0.21
  sP (serum phosphorous): 9.35 ± 0.07
[2]; 0.49 mg
  AUC 0-inf/D_obs: 13610.915 pg·h/mL/mg
  AUC 0-inf/D_pred: 13604.805 pg·h/mL/mg
  AUC 0-t/0-inf_obs: 0.996
  AUC 0-t/0-inf_pred: 0.997
  Clast_obs/Cmax: 0.005
  Clast_pred/Cmax: 0.005
[2]; sc, 0.04 mg
  AUC 0-inf/D_obs: 240.561 pg·h/mL/µg
  AUC 0-inf/D_pred: 240.495 pg·h/mL/µg
  AUC 0-t/0-inf_obs: 0.996
  AUC 0-t/0-inf_pred: 0.996
  Cl/F_obs: 0.004 (μg)/(pg/mL)/h
  Cl/F_pred: 0.004 (μg)/(pg/mL)/h
  Clast_obs/Cmax: 0.002
  Clast_pred/Cmax: 0.002
  Vz/F_obs: 0.027 (μg)/(pg/mL)
  Vz/F_pred: 0.027 (μg)/(pg/mL)
[3]
  AUC 0-inf/D_obs: 480.625 pg·h/mL/µg
  AUC 0-inf/D_pred: 480.502 pg·h/mL/µg
  Cl/F_obs: 0.002 (μg)/(pg/mL)/h
  Cl/F_pred: 0.002 (μg)/(pg/mL)/h
  Vz/F_obs: 0.013 (μg)/(pg/mL)
  Vz/F_pred: 0.013 (μg)/(pg/mL)
[4]; [6]
  level at 5 min: 3510 pg/mL
  level at 0.5 h: 3070 pg/mL
  level at 1 h: 2870 pg/mL
  level at 2 h: 1630 pg/mL
  level at 4 h: 214 pg/mL
  level at 8 h: 33.7 pg/mL
  level at 24 h: 6.02 pg/mL
[4]; female, SD, rat, plasma, other: buccal/sublingual, 0.49 mg
  bioavailability: 7%
[4]; [7]
  MRT last: 2.02 h
  Tmax: 0.5 h
  half-life: 4.46 h
  level at 0 h: 0.002 pg/mL
  level at 5 min: 403 pg/mL
  level at 0.5 h: 3400 pg/mL
  level at 1 h: 3270 pg/mL
  level at 2 h: 2930 pg/mL
  level at 4 h: 167 pg/mL
  level at 8 h: 50.9 pg/mL
  level at 24 h: 6.2 pg/mL
[4]; female, SD, rat, plasma, sc, 0.04 mg, AUC 0-inf_obs, rats
  AUC(0-inf): 9.61 ng·h/mL
[4]; female, SD, rat, plasma, sc, 0.04 mg, AUC 0-inf_pred, rats
  AUC(0-inf): 9.61 ng·h/mL
[4]; female, SD, rat, plasma, sc, 0.04 mg, AUC 0-t, rats
  AUC 0-t: 9.57 ng·h/mL
[4]; female, SD, rat, plasma, sc, 0.04 mg, AUC t-inf_obs, rats
  AUC(t-inf): 0.0399 ng·h/mL
[4]; female, SD, rat, plasma, sc, 0.04 mg, AUC t-inf_pred, rats
  AUC(t-inf): 0.0375 ng·h/mL
[4]; female, SD, rat, plasma, sc, 0.04 mg, MRT 0-inf_obs, rats
  MRT inf: 2.13 h
[4]; female, SD, rat, plasma, sc, 0.04 mg, MRT 0-inf_pred, rats
  MRT inf: 2.13 h
[4]; rats, GII - Buccal/sublingual 0.49 mg, 0 min
  Mean PTH (1-34) levels: 0.000 pg/mL
[4]; rats, SC, 0.04 mg
  AUMC 0-inf_obs: 20516.940 pg/mL*h^2
  AUMC 0-inf_pred: 20442.395 pg/mL*h^2
  AUMC 0-t: 19300.931 pg/mL*h^2
  AUMC 0-t/0-inf_obs: 0.941
  AUMC 0-t/0-inf_pred: 0.944
  AUMC t-inf_obs: 1216.009 pg/mL*h^2
  AUMC t-inf_pred: 1141.464 pg/mL*h^2
  Clast_obs: 6.201 pg/mL
  Clast_pred: 5.821 pg/mL
  Cmax: 3401.092 pg/mL
  Lambda_z: 0.155 h⁻¹
  Tlag: 0.000 h
  Tlast: 24.000 h
[5]; [8]
  Cmax: 3290 pg/mL
  MRT last: 1.35 h
  Tmax: 0.08 h
  half-life: 0.977 h
  level at 5 min: 3290 pg/mL
  level at 0.5 h: 3040 pg/mL
  level at 1 h: 2610 pg/mL
  level at 2 h: 1240 pg/mL
  level at 4 h: 189 pg/mL
  level at 8 h: 17.8 pg/mL
[5]; female, Yorkshire, minipig, plasma, 0.49 mg, AUC 0-inf_obs, buccal/sublingual
  AUC(0-inf): 6.67 ng·h/mL
[5]; female, Yorkshire, minipig, plasma, 0.49 mg, AUC 0-inf_pred, buccal/sublingual
  AUC(0-inf): 6.67 ng·h/mL
[5]; female, Yorkshire, minipig, plasma, 0.49 mg, buccal/sublingual
  AUC 0-t: 6.64 ng·h/mL
[5]; female, Yorkshire, minipig, plasma, 0.49 mg, AUC t-inf_obs, buccal/sublingual
  AUC(t-inf) extrapolated: 0.025 ng·h/mL
[5]; female, Yorkshire, minipig, plasma, 0.49 mg, AUC t-inf_pred, buccal/sublingual
  AUC(t-inf) extrapolated: 0.022 ng·h/mL
[5]; female, Yorkshire, minipig, plasma, 0.49 mg, MRT 0-inf_obs, buccal/sublingual
  MRT inf: 1.39 h
[5]; female, Yorkshire, minipig, plasma, 0.49 mg, MRT 0-inf_pred, buccal/sublingual
  MRT inf: 1.38 h
[5]; female, Yorkshire, minipig, plasma, other: buccal/sublingual, 0.49 mg
  bioavailability: 6%
[5]; [9]
  Cmax: 3280 pg/mL
  MRT last: 2.02 h
  Tmax: 0.5 h
  half-life: 4.55 h
  level at 0 h: 0.002 pg/mL
  level at 5 min: 394 pg/mL
  level at 0.5 h: 3280 pg/mL
  level at 1 h: 3260 pg/mL
  level at 2 h: 2990 pg/mL
  level at 4 h: 164 pg/mL
  level at 8 h: 50 pg/mL
  level at 24 h: 6.43 pg/mL
  AUC 0-t: 9.58 ng·h/mL
[5]; female, Yorkshire, minipig, plasma, sc, 0.04 mg, AUC 0-inf_obs
  AUC(0-inf): 9.62 ng·h/mL
[5]; female, Yorkshire, minipig, plasma, sc, 0.04 mg, AUC 0-inf_pred
  AUC(0-inf): 9.62 ng·h/mL
[5]; female, Yorkshire, minipig, plasma, sc, 0.04 mg, AUC t-inf_obs
  AUC(t-inf) extrapolated: 0.0423 ng·h/mL
[5]; female, Yorkshire, minipig, plasma, sc, 0.04 mg, AUC t-inf_pred
  AUC(t-inf) extrapolated: 0.0396 ng·h/mL
[5]; female, Yorkshire, minipig, plasma, sc, 0.04 mg, MRT 0-inf_obs
  MRT inf: 2.15 h
[5]; female, Yorkshire, minipig, plasma, sc, 0.04 mg, MRT 0-inf_pred
  MRT inf: 2.14 h
[5]; SC, 0.04 mg
  AUMC 0-inf_obs: 20668.040 pg/mL*h^2
  AUMC 0-inf_pred: 20587.700 pg/mL*h^2
  AUMC 0-t: 19375.595 pg/mL*h^2
  AUMC t-inf_obs: 1292.445 pg/mL*h^2
  AUMC t-inf_pred: 1212.104 pg/mL*h^2
  Clast_obs: 6.435 pg/mL
  Clast_pred: 6.035 pg/mL
  Lambda_z: 0.152 h⁻¹
  Tlag: 0.000 h
  Tlast: 24.000 h
[5]; buccal/sublingual, 0.49 mg
  AUMC 0-inf_obs: 9236.909 pg/mL*h^2
  AUMC 0-inf_pred: 9208.738 pg/mL*h^2
  AUMC 0-t: 9001.303 pg/mL*h^2
  AUMC t-inf_obs: 235.606 pg/mL*h^2
  AUMC t-inf_pred: 207.435 pg/mL*h^2
  Clast_obs: 17.765 pg/mL
  Clast_pred: 15.641 pg/mL
  Lambda_z: 0.709 h⁻¹
  Tlag: 0.000 h
  Tlast: 8.000 h
[5]; 0 min
  Mean PTH (1-34) levels: 0.000 pg/mL
[5]; 24 hour
  Mean PTH (1-34) levels: 0.000 pg/mL
